We go through eight molecules from patent US20240067621A1, “POLYFLUORINATED CANNABINOID AND CANNABINOID-LIKE COMPOUNDS AND METHODS OF SYNTHESIS AND USE THEREOF” (The Board of Regents For The Oklahoma Agricultural And …, priority 2021, published 2024).

System in one data set: not given
Conditions: not given
As for `COC(=O)C1=CCC(C(C)(C)C)=CC1c1c(F)c(F)c(C#N)c(F)c1F` (centres unmarked), the melting point fell in the range of 108 to 110 °C.

`CC1=CC(c2c(F)c(F)c(C#N)c(F)c2F)C(C#N)=CC1` (centres unmarked) returned a melting point of 117 to 120 °C.

`COC(=O)C1=CCC(OC(=O)OC(C)(C)C)=CC1c1c(F)c(F)c(C#N)c(F)c1F` (centres unmarked): the melting point lay in the range of 104 to 105 °C.

The molecule `COC(=O)C1=CCC(C(C)(C)C)=CC1c1c(F)c(F)nc(F)c1F` (centres unmarked) registered a melting point of 59 to 60 °C.

Regarding `COC(=O)C1=CCC(C)=CC1c1c(F)c(F)c(C(=O)OC)c(F)c1F` (centres unmarked), the melting point was in the range of 91 to 95 °C.

Molecule `COC(=O)C1=CCC(C)=CC1c1c(F)c(F)c(C(F)(F)F)c(F)c1F` (centres unmarked) displayed a melting point of 104 to 105 °C.

Molecule `COC(=O)C1=CCC(C)=CC1c1c(F)c(F)nc(F)c1F` (centres unmarked) had a melting point of 93 to 96 °C.

A further data set concerns cannabinoid receptors. Conditions: natural (trans) THC versus its cis counterpart; cited from earlier work.
With `CCCCCc1cc(O)c2c(c1)OC(C)(C)[C@@H]1CCC(C)=C[C@@H]21` [THC, trans-Δ^9 -tetrahydrocannabinol], the “affinity for cannabinoid receptors” value is on record as “higher affinity”.

Usually melting point stands for the temperature of the solid-liquid transition.
